# Experimental data reported in patent US4434162A, “Phosphonic acid ester, pharmaceutical compositions containing the same and method of using the same” (Kanebo, Ltd., priority 1982, dated 1984).
# Entries after “also recorded” stand apart in the source; their conditions may differ.
# Key:
# [1] = system: dogs; assay: Increase in coronary blood flow upon intravenous administration into dogs; format: in vivo, dog; details: for Increase in coronary blood flow (Δ% ± standard error): anaesthetized dogs, intravenous (femoral vein), dose 0.1 mg/kg, circumflex branch of left coronary; for activity in increasing coronary blood flow (in words): comparison with other esters
# Experimental: (b) Intravenous administration into dogs.
# Increase in coronary blood flow upon intravenous administration of a test compound into dogs was tested. Compounds tested were 4-(benzothiazol-2-yl)benzylphosphonic acid ethyl isopropyl ester and, as a control, diltiazem, 4-(benzothiazol-2-yl)benzylphosphonic acid diethyl ester and 2-(benzothiazol-2-yl)-5-picolinylphosphonic acid diethyl ester.
# Dogs weighing 10 to 13 kg were anaesthetized with pentobarbital sodium (35 mg/kg, intraperitoneal) and, under supportive respiration, a thoractomy was performed by removing the fourth left rib. The pericardial membrane was then incised to expose the heart. The test compound was dissolved in 50% aqueous ethanol and injected into the femoral vein. The blood flow through circumflex branch of left coronary was measured before and after the administration of drugs with an electromagnetic flowmeter (Nihon Kohden, MF-26).
# [2] = system: male ddY mice; assay: Acute toxicity test in mice; details: mouse, in vivo; listed as compound of the invention
# Experimental: (§1) An acute toxicity test was carried out in male ddY mice (in groups of 5 animals, body weights 20.congruent.2 g) by the intraperitoneal administration of a test compound. The LD50 values were calculated by the method of Weil based on the number of deaths within 72 hours.
# [3] = Acute toxicity test in mice; details: mouse, in vivo, ip; male ddY mice, intraperitoneal; deaths within 72 hours, method of Weil
# Experimental: as §1
# [4] = system: isolated guinea pig heart; assay: Action on coronary flow of the isolated guinea pig heart (Langendorff); details: Cavia porcellus, 100 γ/ml in propylene glycol, 0.1 ml infused at 0.1 ml/min, read-out: Increase in coronary flow (Δ% ± standard error)
# Experimental: (a) Action on the isolated guinea pig heart.
# Male guinea-pigs with body weights from 400 to 500 g were slaughtered and promptly thoractomized. After the ascending aorta was cannulated, the heart was enucleated. By the method of Langendorff, this isolated heart was perfused with the Krebs-Henseleit fluid oxygenated with a gaseous mixture of 95% O2 and 5% CO2 at the fluid temperature of 34±1° C. and the perfusion pressure of 60 cm H2 O, and the test compound was infused. The coronary flows before and after infusion were measured and the percent gain in coronary flow was obtained. The coronary flow was measured with a square-wave electromagnetic flowmeter (Nihon Kohden, MF-26) with an extracorporeal probe (Nihon Kohden, FE) set at the top of the cannula and recorded with a multipurpose polygraph (Nihon Kohden, RM-85). The test compound was dissolved in propylene glycol to a concentration of 100 γ/ml and 0.1 ml of the solution was infused at the rate of 0.1 ml/min. For reference, the corresponding data on diltiazem is also shown.
Compound,Increase in coronary blood flow (Δ% ± standard error) [1],activity in increasing coronary blood flow (in words) ([1]; listed as asymmetric type ester of the invention),activity in increasing coronary blood flow (in words) ([1]; listed as compound of the invention),acute toxicity (in words) [2],LD50 at 72 h [3] [mg/kg],"activation at 100 µg/mL, 0.01 mg [4] [%]"
CCOP(=O)(Cc1ccc(-c2nc3ccccc3s2)cc1)OC(C)C (centres unmarked) [4-(benzothiazol-2-yl)benzylphosphonic acid isopropyl ethyl ester],75.3 ± 2.9 Δ%,high activity in increasing coronary blood flow in comparison with other asymmetric and cyclic esters of this type,somewhat lower in its activity of increasing coronary blood flow than the corresponding diethyl ester compound,low acute toxicity; also recorded: lower acute toxicity than such compound,1790,76.9 ± 24.4
"CCOP(=O)(Cc1ccc(-c2nc3ccccc3s2)cc1)OCC [4-(benzothiazol-2-yl)benzylphosphonic acid diethyl ester, reference compound]",82.2 ± 5.0 Δ%,,,,,
"COc1ccc([C@@H]2Sc3ccccc3N(CCN(C)C)C(=O)[C@@H]2OC(C)=O)cc1 [Diltiazem, diltiazem, reference compound]",105.6 ± 14.1 Δ%,,,,177,66 ± 7.1
"CCOP(=O)(Cc1ccc(-c2nc3ccccc3s2)nc1)OCC [2-(benzothiazol-2-yl)-5-picolinylphosphonic acid diethyl ester, reference compound]",83.0 ± 12.3 Δ%,,,,,
